Patent US20240116985A1, “STAPLED PEPTIDES AND METHODS THEREOF” (priority 2020, published 2024)

Key:
CHI Log D procedure = format: physicochemical; conditions: for CHI Log D: pH 7.4; for chromatographic logD: pH 7.4, CHI Log D
[1] = biological target: T1, full-length B-Catenin (Uniprot ID P35222) (Homo sapiens, UniProt P35222); experiment: Alphascreen binding assay (beta-catenin / biotin-TCF4 10-53)
T1 construct: 65 nM full-length B-Catenin (Uniprot ID P35222)
T1 sequence (P35222 1-781): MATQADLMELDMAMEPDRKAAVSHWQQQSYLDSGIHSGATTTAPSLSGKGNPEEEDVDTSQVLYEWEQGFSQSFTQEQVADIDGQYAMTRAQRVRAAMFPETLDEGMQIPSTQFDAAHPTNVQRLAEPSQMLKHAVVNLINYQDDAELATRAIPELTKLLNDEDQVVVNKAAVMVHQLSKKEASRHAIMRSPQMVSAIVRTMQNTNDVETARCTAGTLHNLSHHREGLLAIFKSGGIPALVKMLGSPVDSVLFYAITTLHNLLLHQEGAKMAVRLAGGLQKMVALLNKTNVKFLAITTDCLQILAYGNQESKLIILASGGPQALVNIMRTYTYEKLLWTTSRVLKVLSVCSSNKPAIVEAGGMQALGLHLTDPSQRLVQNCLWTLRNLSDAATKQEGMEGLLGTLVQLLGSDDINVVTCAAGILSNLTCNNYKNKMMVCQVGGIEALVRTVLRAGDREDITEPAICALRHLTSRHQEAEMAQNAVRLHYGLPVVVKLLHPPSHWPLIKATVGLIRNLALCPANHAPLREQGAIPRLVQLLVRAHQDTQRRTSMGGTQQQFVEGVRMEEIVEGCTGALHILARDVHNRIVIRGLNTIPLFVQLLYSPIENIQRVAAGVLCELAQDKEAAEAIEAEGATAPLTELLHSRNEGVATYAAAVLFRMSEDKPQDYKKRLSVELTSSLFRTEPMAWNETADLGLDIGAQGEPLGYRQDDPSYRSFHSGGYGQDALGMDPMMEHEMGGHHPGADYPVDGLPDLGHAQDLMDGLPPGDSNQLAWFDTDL
Procedure: In some embodiments, an assay is an Alphascreen binding assay. A useful protocol is described below as an example.
Alphascreen binding assay: Using the AlphaScreen Histidine (Nickel Chelate) Detection Kit (PerkinElmer), peptide solutions were prepared in buffer (50 mM Tris pH 8.0, 250 mM NaCl, 2% glycerol, 0.03% Tween-20, 0.01% TritonX-100, 0.1% BSA w/v) using a 3-fold serial dilution from 10 uM to 5 nM. Probe solution (65 nM full-length B-Catenin (Uniprot ID P35222), mixed with 10 nM biotin labeled TCF4 residues 10-53 (Uniprot ID Q9NQB0) peptide in buffer) was prepared and 4 uL per well was plated in a white polystyrene 384-well plate (Corning). Equal volume of the titrated peptide was added to the plate and incubated for 15 minutes at 20° C. Then 4 uL of donor and 4 uL acceptor beads at 10 ug/mL were added to the plate, for a 16 uL reaction pool and protected from light for 60 minutes at 20° C. prior to read. Reads were performed on a CLARIOstar plate reader (BMG Labtech) in duplicate, and data were fitted to a 1:1 binding model with hill slope using an in-house script. All provided concentrations are final concentrations.

| SMILES | CHI Log D (CHI Log D procedure) | EC50 [1] [nM] | chromatographic logD (CHI Log D procedure) |
| --- | --- | --- | --- |
| CC(=O)N[C@@H](Cc1ccccc1)C(=O)N[C@@H](CC(=O)O)C(=O)N[C@@H](C)C(=O)N[C@]1(C)CCCCCCC=CCOC(=O)N2CC[C@@](C(=O)N[C@@H](Cc3ccccc3)C(=O)N[C@@H](Cc3c[nH]c4ccccc34)C(=O)N[C@@H](CCC(N)=O)C(N)=O)(C2)NC(=O)[C@H](C(C)C)NC(=O)[C@H](CCc2ccc(O)cc2)NC(=O)[C@H](C)NC(=O)[C@H](C)NC(=O)[C@H](CC(=O)O)NC(=O)[C@H](CC(=O)O)NC1=O [I-119, Ac-Phe-Asp-Ala-R8-Asp-Asp-Ala-Ala-hTyr-Val-PyrS-Phe-Trp-Gln-NH2] | 1.17 | 4940 |  |
| CC(=O)N1CCC[C@]12CC=CCCCC1(CCCC=CCCCCCC[C@@](C)(C(=O)N[C@@H](Cc3ccccc3)C(=O)N[C@@H](Cc3c[nH]c4ccccc34)C(=O)N[C@@H](CCC(N)=O)C(N)=O)NC(=O)[C@H](C(C)C)NC(=O)[C@H](Cc3ccc(C(F)(F)F)cc3)NC(=O)[C@H](C)NC(=O)[C@H](C)NC(=O)[C@H](CC(=O)O)NC(=O)[C@H](CC(=O)O)NC1=O)NC(=O)[C@H](C)NC(=O)[C@H](CC(=O)O)NC2=O (stereo partly drawn) [I-242, Ac-PL3-Asp-Ala-B5-Asp-Asp-Ala-Ala-4F3MeF-Val-S8-Phe-Trp-Gln-NH2] | 2.098 | 4900 |  |
| CC(=O)N[C@@H](Cc1ccccc1)C(=O)N[C@@H](CC(=O)O)C(=O)N[C@@H](C)C(=O)N[C@]1(C)CCCCCCC=CCOC(=O)N2CC[C@@](C(=O)N[C@@H](Cc3ccc(C(N)=O)cc3)C(=O)N[C@@H](Cc3c[nH]c4ccccc34)C(=O)N[C@@H](CCC(N)=O)C(N)=O)(C2)NC(=O)[C@H](C(C)C)NC(=O)[C@H](Cc2ccccc2)NC(=O)[C@H](C)NC(=O)[C@H](C)NC(=O)[C@H](CC(=O)O)NC(=O)[C@H](CC(=O)O)NC1=O [I-89, Ac-Phe-Asp-Ala-R8-Asp-Asp-Ala-Ala-Phe-Val-PyrS-4CBMF-Trp-Gln-NH2] | 0.967 | 5640 |  |
| CC(=O)N1CCC[C@]12CC=CCCCC1(CCCC=CCCCCCC[C@@](C)(C(=O)N[C@@H](Cc3ccccc3)C(=O)N[C@@H](Cc3c[nH]c4ccccc34)C(=O)N[C@@H](CCC(N)=O)C(N)=O)NC(=O)[C@H](C(C)C)NC(=O)[C@H](Cc3ccccc3)NC(=O)[C@H](C)NC(=O)[C@H](C)NC(=O)[C@H](CC(=O)O)NC(=O)[C@H](CC(=O)O)NC1=O)NC(=O)[C@H](C)NC(=O)[C@H](CCC(=O)O)NC2=O (stereo partly drawn) [I-279, Ac-PL3-Glu-Ala-B5-Asp-Asp-Ala-Ala-Phe-Val-S8-Phe-Trp-Gln-NH2] | 1.973 | 4960 |  |
| CC(=O)N1CCC[C@]12CC=CCCCC1(CCCC=CCCCCCC[C@@](C)(C(=O)N[C@@H](Cc3ccccc3)C(=O)N[C@@H](Cc3c[nH]c4ccccc34)C(=O)N[C@@H](CCC(N)=O)C(N)=O)NC(=O)[C@H](C(C)C)NC(=O)[C@H](Cc3ccccc3)NC(=O)[C@H](C)NC(=O)[C@H](C)NC(=O)[C@H](CCC(=O)O)NC(=O)[C@H](CC(=O)O)NC1=O)NC(=O)[C@H](C)NC(=O)[C@H](Cc1ccccc1)NC2=O (stereo partly drawn) [I-201, Ac-PL3-Phe-Ala-B5-Asp-Glu-Ala-Ala-Phe-Val-S8-Phe-Trp-Gln-NH2] |  | 6160 | 2.94 |

These reach a lower EC50 [1]. Values come first.

| CHI Log D (CHI Log D procedure) | EC50 [1] [nM] | chromatographic logD (CHI Log D procedure) | SMILES |
| --- | --- | --- | --- |
| 3.01 | 3970 |  | CC(=O)N1CCC[C@]12CC=CCCCC1(CCCC=CCCCCCC[C@@](C)(C(=O)N[C@@H](Cc3ccccc3)C(=O)N[C@@H](Cc3c[nH]c4ccccc34)C(=O)N[C@@H](CCC(N)=O)C(N)=O)NC(=O)[C@H](C(C)C)NC(=O)[C@H](Cc3ccccc3)NC(=O)[C@H](C)NC(=O)[C@H](C)NC(=O)[C@H](Cc3ccc(C(F)(F)F)cc3)NC(=O)[C@H](CC(=O)O)NC1=O)NC(=O)[C@H](C)NC(=O)[C@H](CC(=O)O)NC2=O (stereo partly drawn) [I-246, Ac-PL3-Asp-Ala-B5-Asp-4F3MeF-Ala-Ala-Phe-Val-S8-Phe-Trp-Gln-NH2] |
| 2.263 | 2830 |  | CC(=O)N1CCC[C@]12CC=CCCCC1(CCCC=CCCCCCC[C@@](C)(C(=O)N[C@@H](Cc3cccc(C(F)(F)F)c3)C(=O)N[C@@H](Cc3c[nH]c4ccccc34)C(=O)N[C@@H](CCC(N)=O)C(N)=O)NC(=O)[C@H](C(C)C)NC(=O)[C@H](Cc3ccccc3)NC(=O)[C@H](C)NC(=O)[C@H](C)NC(=O)[C@H](CC(=O)O)NC(=O)[C@H](CC(=O)O)NC1=O)NC(=O)[C@H](C)NC(=O)[C@H](CC(=O)O)NC2=O (stereo partly drawn) [I-248, Ac-PL3-Asp-Ala-B5-Asp-Asp-Ala-Ala-Phe-Val-S8-3F3MeF-Trp-Gln-NH2] |
|  | 2660 | 2.3 | CC(=O)N1CCC[C@]12CC=CCCCC1(CCCC=CCCCCCC[C@@](C)(C(=O)N[C@@H](Cc3ccccc3)C(=O)N[C@@H](Cc3ccc4ccccc4c3)C(=O)N[C@@H](C)C(N)=O)NC(=O)[C@H](C)NC(=O)[C@H](Cc3ccc(F)c(F)c3)NC(=O)[C@H](C)NC(=O)[C@H](C)NC(=O)[C@H](CCC(=O)O)NC(=O)[C@H](CC(=O)O)NC1=O)NC(=O)[C@H](C)NC(=O)[C@H](CC(=O)O)NC2=O (stereo partly drawn) [I-185, Ac-PL3-Asp-Ala-B5-Asp-Glu-Ala-Ala-34FF-Ala-S8-Phe-2NapA-Ala-NH2] |
| 2.209 | 2230 |  | CC(=O)N1CCC[C@]12CC=CCCCC1(CCCC=CCCCCCC[C@@](C)(C(=O)N[C@@H](Cc3ccc4ccccc4c3)C(=O)N[C@@H](Cc3c[nH]c4ccccc34)C(=O)N[C@@H](CCC(N)=O)C(N)=O)NC(=O)[C@H](C(C)C)NC(=O)[C@H](Cc3ccccc3)NC(=O)[C@H](C)NC(=O)[C@H](C)NC(=O)[C@H](CC(=O)O)NC(=O)[C@H](CC(=O)O)NC1=O)NC(=O)[C@H](C)NC(=O)[C@H](CC(=O)O)NC2=O (stereo partly drawn) [I-278, Ac-PL3-Asp-Ala-B5-Asp-Asp-Ala-Ala-Phe-Val-S8-2NapA-Trp-Gln-NH2] |
|  | 2140 | 2.41 | CC(=O)N1CCC[C@]12CC=CCCCC1(CCCC=CCCCCCC[C@@](C)(C(=O)N[C@@H](Cc3ccccc3)C(=O)N[C@@H](Cc3c[nH]c4ccccc34)C(=O)N[C@@H](CCC(N)=O)C(N)=O)NC(=O)[C@H](C(C)C)NC(=O)[C@H](Cc3ccccc3)NC(=O)[C@H](C)NC(=O)[C@H](C)NC(=O)[C@H](CCC(=O)O)NC(=O)[C@H](Cc3c[nH]cn3)NC1=O)NC(=O)[C@H](C)NC(=O)[C@H](CC(=O)O)NC2=O (stereo partly drawn) [I-206, Ac-PL3-Asp-Ala-B5-His-Glu-Ala-Ala-Phe-Val-S8-Phe-Trp-Gln-NH2] |
| 2.088 | 1400 |  | CC(=O)N1CCC[C@]12CC=CCCCC1(CCCC=CCCCCCC[C@@](C)(C(=O)N[C@@H](Cc3ccccc3)C(=O)N[C@@H](Cc3c[nH]c4ccccc34)C(=O)N[C@@H](CCC(N)=O)C(N)=O)NC(=O)[C@H](C(C)C)NC(=O)[C@H](Cc3cc(F)c(F)c(F)c3)NC(=O)[C@H](C)NC(=O)[C@H](C)NC(=O)[C@H](CCC(=O)O)NC(=O)[C@H](CC(=O)O)NC1=O)NC(=O)[C@H](C)NC(=O)[C@H](CC(=O)O)NC2=O (stereo partly drawn) [I-210, Ac-PL3-Asp-Ala-B5-Asp-Glu-Ala-Ala-345FF-Val-S8-Phe-Trp-Gln-NH2] |
| 2.252 | 1280 |  | CC(=O)N1CCC[C@]12CC=CCCCC1(CCCC=CCCCCCC[C@@](C)(C(=O)N[C@@H](Cc3ccccc3)C(=O)N[C@@H](Cc3c[nH]c4ccccc34)C(=O)N[C@@H](CCC(N)=O)C(N)=O)NC(=O)[C@H](C(C)C)NC(=O)[C@H](Cc3ccccc3)NC(=O)[C@H](C)NC(=O)[C@H](C)NC(=O)[C@H](CC(N)=O)NC(=O)[C@H](CC(=O)O)NC1=O)NC(=O)[C@H](C)NC(=O)[C@H](CC(=O)O)NC2=O (stereo partly drawn) [I-124, Ac-PL3-Asp-Ala-B5-Asp-Asn-Ala-Ala-Phe-Val-S8-Phe-Trp-Gln-NH2] |
| 1.415 | 734 |  | CC[C@H](C)[C@H](NC(=O)[C@H](CC(=O)O)NC(=O)[C@H](C)NC(C)=O)C(=O)N[C@]1(C)CCN(C)C(=O)OCC=CCCCCC[C@@](C)(C(=O)N[C@@H](Cc2ccccc2)C(=O)N[C@@H](Cc2c[nH]c3ccccc23)C(=O)N[C@@H](C)C(N)=O)NC(=O)[C@H](C)NC(=O)[C@H](Cc2ccccc2)NC(=O)[C@H](C)NC(=O)[C@H](C)NC(=O)[C@H](CCC(=O)O)NC(=O)[C@H](CC(=O)O)NC1=O [I-155, Ac-Ala-Asp-Ile-RdN-Asp-Glu-Ala-Ala-Phe-Ala-S7-Phe-Trp-Ala-NH2] |
